According to patent US20070135457A1, “Pyrido[2,3-d]pyrimidine-2,4-diamines as pde2 inhibitors” (Pfizer Inc., priority 2003, published 2007):
Read-outs that look alike come from different tables or passages of the source.

How the values were obtained:
[1] = biological target: T1, PDE 2 enzyme isolated from human platelets (Homo sapiens, UniProt O00408); assay: PDE 2 enzyme scintillation proximity assay (SPA); type: biochemical
T1 construct: PDE 2 enzyme was isolated from human platelets; from tissue; host or cells: human platelets (pooled blood from multiple donors); HiTrap Q anion-exchange fraction eluting at about 325 mM NaCl
Protocol: PDE 2 enzyme was isolated from human platelets with approximately 1.4 L of blood from multiple donors used to make the platelet pellets. Platelets were resuspended in approximately 75 mL of lysis buffer [20 mM Tris pH 7.2, 5 mM MgCl2, 250 mM Sucrose, 1 mM DTT, 1 μL/2 mL Sigma Protease inhibitor #8340; Sigma-Aldrich; St. Louis, Mo.] and lysed by sonication at 4° C., with 3 rounds of 1 min bursts then spun at 4° C. overnight at 100,000×g. Cleared lysates were loaded to AKTA Explorer FPLC (Amersham Biosciences; Piscataway, N.J.) in a series of three chromatographic separations, with an average load volume of 25 mL. A 5 mL HiTrap Q anion exchange column (Amersham Biosciences) was used. […] Two major cGMP activity fractions (PDE 5 and PDE 2) were isolated and pooled separately. The PDE 2-pooled fraction total was approximately 40 mL which was dispensed in cryovials of 200 μl/vial and placed in storage at −80° C.
The inhibitory activity of the compounds of formula (I) on recombinant or isolated PDE 2, and other PDE's, was determined using the […] scintillation proximity assay (SPA) kits from Amersham International (Little Chalfont, England). The SPA assays were performed using 96 well plates. The PDE SPA yttrium silicate beads (Amersham Biosciences) bind preferentially to the linear nucleotide, GMP, compared to the cyclic nucleotide, cGMP. ^3H-cGMP was added to the reaction and when the product, ^3H-GMP, was in […] to the beads, the scintillant within the bead was excited, which was detected using a Packard scintillation counter (Perkin-Elmer Life Sciences; Boston, Mass.). The enzyme concentration used was in the linear range and the Km of the enzyme was determined (15 uM). The final substrate concentration was <1/3 of Km (1 μM) so that IC50 values would approximate the Ki values. The assay was validated using literature compounds as controls before testing compounds. Then, PDE catalytic activity measurements obtained in the presence of the test compound, and those obtained in the absence of the test compound, were compared and the lC50 value is determined. […]

[2] = SPA, 1 μM substrate, read-out: PDE 2 Inhibition

T1 sequence (O00408 whole entry): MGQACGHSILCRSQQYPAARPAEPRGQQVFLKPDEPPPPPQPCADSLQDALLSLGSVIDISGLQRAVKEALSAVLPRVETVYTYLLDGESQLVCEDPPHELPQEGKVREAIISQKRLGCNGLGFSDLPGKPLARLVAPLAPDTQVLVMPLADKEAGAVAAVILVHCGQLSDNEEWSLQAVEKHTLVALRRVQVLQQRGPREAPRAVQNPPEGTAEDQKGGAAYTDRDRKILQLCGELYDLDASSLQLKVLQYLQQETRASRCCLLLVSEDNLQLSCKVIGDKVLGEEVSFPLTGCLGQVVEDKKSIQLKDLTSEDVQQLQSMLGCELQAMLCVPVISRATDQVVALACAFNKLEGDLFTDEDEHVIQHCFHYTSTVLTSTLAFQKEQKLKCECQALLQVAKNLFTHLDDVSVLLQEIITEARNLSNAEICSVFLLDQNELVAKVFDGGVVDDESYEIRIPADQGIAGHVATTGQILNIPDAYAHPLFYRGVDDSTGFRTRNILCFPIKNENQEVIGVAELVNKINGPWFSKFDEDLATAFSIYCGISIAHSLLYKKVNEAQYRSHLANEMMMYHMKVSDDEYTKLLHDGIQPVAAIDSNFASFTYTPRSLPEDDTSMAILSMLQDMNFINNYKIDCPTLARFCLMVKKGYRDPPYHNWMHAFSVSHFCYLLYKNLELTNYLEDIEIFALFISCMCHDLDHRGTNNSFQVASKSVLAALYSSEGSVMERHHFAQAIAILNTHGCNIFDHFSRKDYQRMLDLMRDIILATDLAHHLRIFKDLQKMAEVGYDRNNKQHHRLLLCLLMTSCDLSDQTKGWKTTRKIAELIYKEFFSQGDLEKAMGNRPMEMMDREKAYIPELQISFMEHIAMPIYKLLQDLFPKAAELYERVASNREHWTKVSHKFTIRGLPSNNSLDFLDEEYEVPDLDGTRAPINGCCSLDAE

| SMILES | IC50 [1, 2] [nM] | melting point [°C] | IC50 ([1]; PDE 2 isolated from human platelets, read-out: IC50) [nM] |
| --- | --- | --- | --- |
| COc1cc(CNc2nc(NCCc3ccc(Cl)cc3)nc3ncccc23)cc(OC)c1 [Example 8, N^2-[2-(4-Chloro-phenyl)-ethyl]-N^4-(3,5-dimethoxy-benzyl)-pyrido[2,3-d]pyrimidine-2,4-diamine] | 250 to 1000 | 85 to 90 |  |
| COc1ccc(CNc2nc(NCCc3ccccc3F)nc3ncccc23)cc1OC [Example 15, N^4-(3,4-Dimethoxy-benzyl)-N^2-[2-(2-fluoro-phenyl)-ethyl]-pyrido[2,3-d]pyrimidine-2,4-diamine] | 50 to 250 | 220 to 222 |  |
| COc1ccc(CNc2nc(NCCCc3ccc(C(O)C(F)(F)F)cc3)nc3ncccc23)cc1OC (stereo not drawn) [Example 25, 1-(4-{3-[4-(3,4-Dimethoxy-benzylamino)-pyrido[2,3-d]pyrimidin-2-ylamino]-propyl}-phenyl)-2,2,2-trifluoro-ethanol] | 50 to 250 | 222 to 224 |  |
| COc1cc(CNc2nc(NCCCc3ccc(C(C)(C)O)cc3)nc3ncccc23)cc(OC)c1 [Example 22, 2-(4-{3-[4-(3,5-Dimethoxy-benzylamino)-pyrido[2,3-d]pyrimidin-2-ylamino]-propyl}-phenyl)-propan-2-ol] | 50 to 250 | 70 to 75 |  |
| CCOc1cc(CNc2nc(NCCCc3ccc(C(C)(C)O)cc3)nc3ncccc23)ccc1OC [Example 35, 2-(4-{3-[4-(3-Ethoxy-4-methoxy-benzylamino)-pyrido[2,3-d]pyrimidin-2-ylamino]-propyl}-phenyl)-propan-2-ol] | 250 to 1000 | 150 to 152 |  |
| COc1cc(CNc2nc(NCc3ccccc3)nc3ncccc23)cc(OC)c1 [Example 9, N^2-Benzyl-N^4-(3,5-dimethoxy-benzyl)-pyrido[2,3-d]pyrimidine-2,4-diamine] | 250 to 1000 | 84 to 85 |  |
| COc1ccc(CNc2nc(NCCCc3ccc4nonc4c3)nc3ncccc23)cc1OC [Example 26, N^2-3-(Benzo[1,2,5]oxadiazol-5-yl-propyl)-N^4-(3,4-dimethoxy-benzyl)-pyrido[2,3-d]pyrrimidine-2,4-diamine] | 250 to 1000 | 191 to 193 |  |
| COc1ccc(CNc2nc(NCCOc3ccccc3)nc3ncccc23)cc1OC [Example 19, N^4-(3,4-Dimethoxy-benzyl)-N^2-(2-phenoxy-ethyl)-pyrido[2,3-d]pyrimidine-2,4-diamine] | 50 to 250 | 227 to 228 |  |
| COc1ccc(CNc2nc(NCCCc3cccc(C4(C)OCCO4)c3)nc3ncccc23)cc1OC [Example 28, N^4-(3,4-Dimethoxy-benzyl)-N^2-{3-[3-(2-methyl-[1,3]-dioxolan-2-yl)-phenyl]-propyl}-pyrido[2,3-d]pyrimidine-2,4-diamine] | 250 to 1000 |  |  |
| COc1ccc(CNc2nc(NCCCc3ccc4ncsc4c3)nc3ncccc23)cc1OC [Example 27, N^2-3-(Benzothiazol-6-yl-propyl)-N^4-(3,4-dimethoxy-benzyl)-pyrido[2,3d]pyrimidine-2,4-diamine] | 250 to 1000 | 191 to 193 |  |
| COc1cc(CNc2nc(NCCc3ccccn3)nc3ncccc23)cc(OC)c1 [Example 1, N^4-(3,5-Dimethoxy-benzyl)-N^2-(2-pyridin-2-yl-ethyl)-pyrido[2,3-d]pyrimidine-2,4-diamine] | 50 to 250 | 157 to 158 |  |
| COc1cc(CNc2nc(NCCOc3ccccc3)nc3ncccc23)cc(OC)c1 [Example 33, N^4-(3,5-Dimethoxy-benzyl)-N^2-(3-phenoxy-ethyl)-pyrido[2,3-d]pyrimidine-2,4-diamine] | 50 to 250 | 165 to 167 |  |
| COc1cc(CNc2nc(NCCc3cccnc3)nc3ncccc23)cc(OC)c1 [Example 2, N^4-(3,5-Dimethoxy-benzyl)-N^2-(2-pyridin-3-yl-ethyl)-pyrido[2,3-d]pyrimidine-2,4-diamine] | 50 to 250 | 185 to 186 |  |
| COc1ccc(CNc2nc(NCCCCc3ccccc3)nc3ncccc23)cc1OC [Example 18, N^4-(3,4-Dimethoxy-benzyl)-N^2-(4-phenyl-butyl)-pyrido[2,3-d]pyrimidine-2,4-diamine] | 50 to 250 | 194 to 195 |  |
| COc1cc(CNc2nc(NCCc3cccs3)nc3ncccc23)cc(OC)c1 [Example 10, N^4-(3,5-Dimethoxy-benzyl)-N^2-(2-thiophen-2-yl-ethyl)-pyrido[2,3-d]pyrimidine-2,4-diamine] | < 50 | 120 to 121 |  |
| COc1ccc(CNc2nc(NCCc3ccccc3)nc3ncccc23)cc1OC [Example 17, N^4-(3,4-Dimethoxy-benzyl)-N^2-phenethyl-pyrido[2,3-d]pyrimidine-2,4-diamine] | < 50 | 217 to 218 |  |
| COc1ccc(CNc2nc(NCCCc3ccc(C(C)(C)O)cc3)nc3ncccc23)cc1OC [Example 21, 2-(4-{3-[4-(3,4-Dimethoxy-benzylamino)-pyrido[2,3-d]pyrimidin-2-ylamino]-propyl}-phenyl)-propan-2-ol] | 250 to 1000 | 198 to 199 |  |
| COc1ccc(CNc2nc(NCCc3ccc(F)cc3)nc3ncccc23)cc1OC [Example 16, N^4-(3,4-Dimethoxy-benzyl)-N^2-[2-(4-fluoro-phenyl)-ethyl]-pyrido[2,3-d]pyrimidine-2,4-diamine] | < 50 | 225 to 226 |  |
| COc1ccc(CNc2nc(NCCCc3cccc(C(C)=O)c3)nc3ncccc23)cc1OC [Example 37, 1-(3-{3-[4-(3,4-Dimethoxy-benzylamino)-pyrido[2,3-d]pyrimidin-2-ylamino]-propyl}-phenyl)-ethanone] | 250 to 1000 | 152 to 155 |  |
| COc1ccc(CNc2nc(NCCCc3ccc(C(=O)C(F)(F)F)cc3)nc3ncccc23)cc1OC [Example 36, 1-(4-{3-[4-(3,4-Dimethoxy-benzylamino)-pyrido[2,3-d]pyrimidin-2-ylamino]-propyl}-phenyl)-2,2,2-trifluoro-ethanone] | 250 to 1000 | 198 to 200 |  |
| COc1ccc(CCNc2nc(NCc3cc(OC)cc(OC)c3)c3cccnc3n2)cc1 [Example 6, N^4-(3,5-Dimethoxy-benzyl)-N^2-[2-(4-methoxy-phenyl)-ethyl]-pyrido[2,3-d]pyrimidine-2,4-diamine] | 250 to 1000 | 88 to 89 |  |
| CCOc1cc(CNc2nc(NCCCc3ccccc3)nc3ncccc23)ccc1OC [Example 34, N^4-(3-Ethoxy-4-methoxy-benzyl)-N^2-(3-phenyl-propyl)-pyrido[2,3-d]pyrimidine-2,4-diamine] | 250 to 1000 | 181 to 182 |  |
| COc1ccc(CNc2nc(NCCc3cccc(F)c3)nc3ncccc23)cc1OC [Example 14, N^4-(3,4-Dimethoxy-benzyl)-N^2-[2-(3-fluoro-phenyl)-ethyl]-pyrido[2,3-d]pyrimidine-2,4-diamine] | 50 to 250 | 227 to 228 |  |
| COc1cc(CNc2nc(NCCCc3ccccc3)nc3ncccc23)cc(OC)c1 [Example 7, N^4-(3,5-Dimethoxy-benzyl)-N^2-(3-phenyl-propyl)-pyrido[2,3-d]pyrimidine-2,4-diamine] | 50 to 250 |  |  |
| COc1ccc(CNc2nc(NCc3ccccc3C(F)(F)F)nc3ncccc23)cc1OC [Example 20, N^4-(3,4-Dimethoxy-benzyl)-N^2-(2-trifluoromethyl-benzyl)-pyrido[2,3-d]pyrimidine-2,4-diamine] | 250 to 1000 | 227 to 228 |  |
| COc1cc(CNc2nc(NCc3cccnc3)nc3ncccc23)cc(OC)c1 [Example 4, N^4-(3,5-Dimethoxy-benzyl)-N^2-2-pyridin-3-ylmethyl-pyrido[2,3-d]pyrimidine-2,4-diamine] | 250 to 1000 | 222 to 223 |  |
| COc1cc(CNc2nc(NCCc3ccccc3)nc3ncccc23)cc(OC)c1 [Example 12, N^4-(3,5-Dimethoxy-benzyl)-N^2-2-phenethyl-pyrido[2,3-d]pyrimidine-2,4-diamine] | 50 to 250 | 112 to 114 |  |
| CCCCCCC(C(C)O)n1cnc2c(N)ncnc21 (stereo not drawn) [EHNA, erythro-9-(2-hydroxy-3-nonyl)adenine, reference compound] |  |  | 1700 |
| COc1cc(CNc2nc(NCCCc3ccncc3)nc3ncccc23)cc(OC)c1 [Example 31, N^4-(3,5-Dimethoxy-benzyl)-N^2-(3-pyridin-4-yl-propyl)-pyrido[2,3d]pyrimidine-2,4-diamine] | 250 to 1000 |  |  |
